Measured values published in patent US20240261422A1, “ANTHRACYCLINE ANTIBODY CONJUGATES” (SEAGEN INC., priority 2021, published 2024).
Where two headings read alike, the source gives them in different places.

Experiments:
[1] = system: BxPC3, PancCa; experiment: In vitro growth inhibition (CellTiter-Glo, 96 h), BxPC3; type: cell-based; conditions: for IC50: anthracycline free drugs, 96 h, read-out: IC50 (nM) BxPC3, PancCa; for IC50 (ng/mL) BxPC3, PancCa: cOKT9 ADCs, average DAR 8, 96 h
Experimental: (§1) Cell culture of cell lines as listed in Table 2-4 in log-phase growth were seeded in 96-well plates and grown for 24 h in cell culture media containing 150 μL RPMI 1640 supplemented with 20% FBS (see Mol. Cancer Ther., 2016, 15(5), 938-945 and Mol. Cancer Ther., 2018, 17(8), 1752-1760). Serial dilutions of free drugs or antibody-drug conjugates (final concentration between 0.004 nM and 1 μM) in cell culture media were prepared at 4× working concentrations; 50 μL of each dilution was added to the 96-well plates. Following addition of the drug or ADC, the cells were incubated with test articles (free drugs or ADCs) for 4 d at 37° C. After 96 h, growth inhibition was assessed by CellTiter-Glo® (Promega, Madison, WI) and luminescence was measured on a plate reader (brand, model).
(§2) Cells were treated for 96 hours with anthracycline analogues listed in Table 2, and then assessed for viability as described in the procedures as described above. […] ND denotes value not determined with that assay for the specified compound.
(§3) ADCs were prepared by full reduction of interchain disulfides to reveal 8-conjugatable cysteines/antibody, and subsequent alkylation with the maleimide-containing drug-linkers (Compounds 14, 18, 21, 24, 29, 32, 33, 34, and 48) according to the procedures described in Mol. Cancer Ther. 2018, 17(8). 1752-1760. Conjugates of antibody cOKT9 were prepared with anthracycline linkers. Cancer cell lines were treated with cOKT9 ADCs (average DAR of 8:1) for 96 h and then assessed for viability. […] ND denotes value not determined with that assay for the specified compound.

[2] = system: L540cy, HL; experiment: In vitro growth inhibition (CellTiter-Glo, 96 h), L540cy; type: cell-based; conditions: for IC50: anthracycline free drugs, 96 h, read-out: IC50 (nM) L540cy, HL
Experimental: as §1, §2, §3
(§4) Anti-CD30 ADCs comprising cAC10 antibody conjugated to drug-linkers 24, 32, 29, 18, 14, and 48 with an average DAR of 4 were prepared for evaluation on a CD30-expressing lymphoma cell line panel. […] Anti-CD30 conjugates bearing the PNU linkers 24, 32, 29, 18, and 14 were active on L540cy, DEL, and Karpas299 lymphoma cell lines, and conjugate 48 was active on L540cy and DEL cell lines, with IC50s ranging from 0.2-4 ng/mL.

[3] = system: 786-O, MDR + RCC; experiment: In vitro growth inhibition (CellTiter-Glo, 96 h), 786-O; type: cell-based; conditions: for IC50: 96 h; for IC50 (ng/mL) 786-O, MDR + RCC: cOKT9 ADCs, average DAR 8, 96 h
Experimental: as §1, §2, §3

[4] = system: L540cy, 786-O, BxPC3, HL60, HL60/RV; conditions: for change of potency relative to the parent compound: comparison in words; for IC50s of cOKT9 conjugates: 24 h
[5] = system: HL60, AML; experiment: In vitro growth inhibition (CellTiter-Glo, 96 h), HL60; type: cell-based; conditions: for IC50: read-out: IC50 (nM) HL60, AML; for IC50 (ng/mL) HL60, AML: cOKT9 ADCs, average DAR 8, 96 h
Experimental: as §1, §2, §3

[6] = system: HL60/RV, MDR + AML; experiment: In vitro growth inhibition (CellTiter-Glo, 96 h), HL60/RV; type: cell-based; conditions: for IC50: read-out: IC50 (nM) HL60/RV, MDR + AML; for IC50 (ng/mL) HL60/RV, MDR + AML: cOKT9 ADCs, average DAR 8, 96 h
Experimental: as §1, §2, §3

[7] = system: L428, MDR + HL; experiment: In vitro growth inhibition (CellTiter-Glo, 96 h), L428; type: cell-based; conditions: cAC10 (anti-CD30) ADCs, average DAR 4
Experimental: as §1, §4

[8] = system: DEL, ALCL; experiment: In vitro growth inhibition (CellTiter-Glo, 96 h), DEL; type: cell-based; conditions: cAC10 (anti-CD30) ADCs, average DAR 4
Experimental: as §1, §4

[9] = system: Karpas299, ALCL; experiment: In vitro growth inhibition (CellTiter-Glo, 96 h), Karpas299; type: cell-based; conditions: cAC10 (anti-CD30) ADCs, average DAR 4
Experimental: as §1, §4

[10] = system: Ramos, CD30 − NHL; experiment: In vitro growth inhibition (CellTiter-Glo, 96 h), Ramos; type: cell-based; conditions: cAC10 (anti-CD30) ADCs, average DAR 4
Experimental: as §1, §4

[11] = Homo sapiens, 786-0, anthracycline free drugs, read-out: IC50 (nM) 786-O, MDR + RCC
[12] = cOKT9 ADCs, average DAR 8, 96 h
[13] = cAC10 (anti-CD30) ADCs, average DAR 4
[14] = cOKT9 ADCs DAR 8, result in words

COc1cccc2c1C(=O)c1c(O)c3c(c(O)c1C2=O)C[C@@](O)(C(=O)O)C[C@@H]3O[C@H]1C[C@H](N2CCO[C@H](OC)C2)[C@H](O)[C@H](C)O1 [Compound 4, (2S,4S)-2,5,12-trihydroxy-4-(((2R,4S,5S,6S)-5-hydroxy-4-((S)-2-methoxymorpholino)-6-methyltetrahydro-2H-pyran-2-yl)oxy)-7-methoxy-6,11-dioxo-1,2,3,4,6,11-hexahydrotetracene-2-carboxylic acid]
IC50 ([1]; Homo sapiens, BXPC-3): 10 to 100 nM
IC50 ([2]; L540cy): 10 to 100 nM
IC50 [3, 11]: 10 to 100 nM
change of potency relative to the parent compound ([4]; free drugs): lost roughly one order of magnitude in potency

COc1cccc2c1C(=O)c1c(O)c3c(c(O)c1C2=O)C[C@@](O)(C(=O)CO)C[C@@H]3O[C@H]1C[C@H]2[C@H](O[C@@H]3[C@@H](OC)OCCN32)[C@H](C)O1 [Compound 5, PNU-159682, reference compound]
IC50 [1]: < 10 nM
IC50 [2]: < 10 nM
IC50 ([3]; anthracycline free drugs, read-out: IC50 (nM) 786-O, MDR + RCC): < 10 nM
IC50 ([3]; free drug, read-out: IC50 value, 786-0): < 0.004 nM
IC50 ([4]; read-out: IC50 values on the cancer lines tested, free drugs, 96 h, value or range over the cell lines tested): ~0.01 nM
IC50 ([5]; anthracycline free drugs, 96 h): < 10 nM
IC50 ([6]; anthracycline free drugs, 96 h): < 10 nM

COc1cccc2c1C(=O)c1c(O)c3c(c(O)c1C2=O)C[C@@](O)(C(=O)NCCN)C[C@@H]3O[C@H]1C[C@H]2[C@H](O[C@@H]3[C@@H](OC)OCCN32)[C@H](C)O1 [Compound 9, (2S,4S)—N-(2-aminoethyl)-2,5,12-trihydroxy-7-methoxy-4-(((1S,3R,4aS,9S,9aR,10aS)-9-methoxy-1-methyloctahydro-1H-pyrano[4′,3′:4,5]oxazolo[2,3-c][1,4]oxazin-3-yl)oxy)-6,11-dioxo-1,2,3,4,6,11-hexahydrotetracene-2-carboxamide]
IC50 ([1]; Homo sapiens, BXPC-3): < 10 nM
IC50 ([2]; L540cy): < 10 nM
IC50 [3, 11]: < 10 nM
change of potency relative to the parent compound ([4]; free drugs): increased potency in 4 of 5 cell lines
IC50 ([5]; Homo sapiens, HL-60, 96 h): < 10 nM
IC50 ([6]; Homo sapiens, HL-60, 96 h): 100 to 1000 nM

COc1cccc2c1C(=O)c1c(O)c3c(c(O)c1C2=O)C[C@@](O)(C(=O)NCCOCCOCCOCCOCCNC(=O)CCN1C(=O)C=CC1=O)C[C@@H]3O[C@H]1C[C@H]2[C@H](O[C@@H]3[C@@H](OC)OCCN32)[C@H](C)O1 [Compound 21, (2S,4S)—N-(18-(2,5-dioxo-2,5-dihydro-1H-pyrrol-1-yl)-16-oxo-3,6,9,12-tetraoxa-15-azaoctadecyl)-2,5,12-trihydroxy-7-methoxy-4-(((1S,3R,4aS,9S,9aR,10aS)-9-methoxy-1-methyloctahydro-1H-pyrano[4′,3′:4,5]oxazolo[2,3-c][1,4]oxazin-3-yl)oxy)-6,11-dioxo-1,2,3,4,6,11-hexahydrotetracene-2-carboxamide]
IC50 (ng/mL) BxPC3, PancCa [1]: A (IC50<10 ng/mL)
IC50 (ng/mL) L540cy, HL [2, 12]: A (IC50<10 ng/mL)
IC50 (ng/mL) 786-O, MDR + RCC [3]: A (IC50<10 ng/mL)
IC50s of cOKT9 conjugates [4]: 1 to 150 ng/mL
IC50 (ng/mL) HL60, AML [5]: C (100 ng/mL≤IC50<1000 ng/mL)
IC50 (ng/mL) HL60/RV, MDR + AML [6]: D (IC50≥1000 ng/mL)

COc1cccc2c1C(=O)c1c(O)c3c(c(O)c1C2=O)C[C@@](O)(C(=O)NCCNC(=O)OCc1ccc(NC(=O)[C@H](C)NC(=O)[C@@H](NC(=O)CCN2C(=O)C=CC2=O)C(C)C)cc1)C[C@@H]3O[C@H]1C[C@H]2[C@H](O[C@@H]3[C@@H](OC)OCCN32)[C@H](C)O1 [Compound 24, 4-((S)-2-((S)-2-(3-(2,5-dioxo-2,5-dihydro-1H-pyrrol-1-yl)propanamido)-3-methylbutanamido)propanamido)benzyl (2-((2S,4S)-2,5,12-trihydroxy-7-methoxy-4-(((1S,3R,4aS,9S,9aR,10aS)-9-methoxy-1-methyloctahydro-1H-pyrano[4′,3′:4,5]oxazolo[2,3-c][1,4]oxazin-3-yl)oxy)-6,11-dioxo-1,2,3,4,6,11-hexahydrotetracene-2-carboxamido)ethyl)carbamate]
IC50 (ng/mL) BxPC3, PancCa [1]: A (IC50<10 ng/mL)
IC50 (ng/mL) L428, MDR + HL [7]: E (IC50≥500 ng/mL)
IC50 (ng/mL) L540cy, HL [2, 13]: B (1 ng/mL≤IC50<10 ng/mL)
IC50 (ng/mL) L540cy, HL [2, 12]: A (IC50<10 ng/mL)
IC50 (ng/mL) 786-O, MDR + RCC [3]: B (10 ng/mL≤IC50<100 ng/mL)
IC50s of cOKT9 conjugates [4]: 1 to 150 ng/mL
IC50 (ng/mL) HL60, AML [5]: B (10 ng/mL≤IC50<100 ng/mL)
IC50 (ng/mL) DEL, ALCL [8]: A (IC50<1 ng/mL)
IC50 (ng/mL) Karpas299, ALCL [9]: B (1 ng/mL≤IC50<10 ng/mL)
IC50 (ng/mL) Ramos, CD30 − NHL [10]: D (100 ng/mL≤IC50<500 ng/mL)
activity of cOKT9 conjugates on multidrug resistant HL60/RV [6, 14]: active
IC50 (ng/mL) HL60/RV, MDR + AML [6]: B (10 ng/mL≤IC50<100 ng/mL)

COc1cccc2c1C(=O)c1c(O)c3c(c(O)c1C2=O)C[C@@](O)(C(=O)NCCNC(=O)CCN1C(=O)C=CC1=O)C[C@@H]3O[C@H]1C[C@H](N2CCO[C@H](OC)C2)[C@H](O)[C@H](C)O1 [Compound 34, (2S,4S)—N-(2-(3-(2,5-dioxo-2,5-dihydro-1H-pyrrol-1-yl)propanamido)ethyl)-2,5,12-trihydroxy-4-(((2R,4S,5S,6S)-5-hydroxy-4-((S)-2-methoxymorpholino)-6-methyltetrahydro-2H-pyran-2-yl)oxy)-7-methoxy-6,11-dioxo-1,2,3,4,6,11-hexahydrotetracene-2-carboxamide]
IC50 (ng/mL) BxPC3, PancCa [1]: D (IC50≥1000 ng/mL)
IC50 (ng/mL) L540cy, HL [2, 12]: D (IC50≥1000 ng/mL)
IC50 (ng/mL) 786-O, MDR + RCC [3]: D (IC50≥1000 ng/mL)
activity of cOKT9 conjugates across the panel of cancer cell lines [4, 14]: inactive

COc1cccc2c1C(=O)c1c(O)c3c(c(O)c1C2=O)C[C@@](O)(C(=O)NCCNC(=O)CNC(=O)[C@H](C)NC(=O)[C@@H](NC(=O)CCN1C(=O)C=CC1=O)C(C)C)C[C@@H]3O[C@H]1C[C@H]2[C@H](O[C@@H]3[C@@H](OC)OCCN32)[C@H](C)O1 [Compound 48, (2S,4S)—N-((8S,11S)-15-(2,5-dioxo-2,5-dihydro-1H-pyrrol-1-yl)-11-isopropyl-8-methyl-4,7,10,13-tetraoxo-3,6,9,12-tetraazapentadecyl)-2,5,12-trihydroxy-7-methoxy-4-(((1S,3R,4aS,9S,9aR,10aS)-9-methoxy-1-methyloctahydro-1H-pyrano[4′,3′:4,5]oxazolo[2,3-c][1,4]oxazin-3-yl)oxy)-6,11-dioxo-1,2,3,4,6,11-hexahydrotetracene-2-carboxamide]
IC50 (ng/mL) BxPC3, PancCa [1]: A (IC50<10 ng/mL)
IC50 (ng/mL) L540cy, HL [2, 13]: A (IC50<1 ng/mL)
IC50 (ng/mL) L540cy, HL [2, 12]: A (IC50<10 ng/mL)
IC50 (ng/mL) 786-O, MDR + RCC [3]: B (10 ng/mL≤IC50<100 ng/mL)
IC50s of cOKT9 conjugates [4]: 1 to 150 ng/mL
IC50 (ng/mL) DEL, ALCL [8]: A (IC50<1 ng/mL)
